How the values were obtained:
[1] = biological target: T1, Human-derived ACLY protein (Homo sapiens, UniProt P53396); test: ACLY citrate cleavage enzyme inhibition, ADP-Glo assay; type: biochemical; settings: 25 nM enzyme, 30 min, 37° C., read-out: IC50 for inhibition of ACLY enzyme activity (mean ± SD)
T1 construct: purchased Beijing Yiqiao Shenzhou Technology Co., Ltd 11769-H07B
T1 sequence (P53396 1-1101): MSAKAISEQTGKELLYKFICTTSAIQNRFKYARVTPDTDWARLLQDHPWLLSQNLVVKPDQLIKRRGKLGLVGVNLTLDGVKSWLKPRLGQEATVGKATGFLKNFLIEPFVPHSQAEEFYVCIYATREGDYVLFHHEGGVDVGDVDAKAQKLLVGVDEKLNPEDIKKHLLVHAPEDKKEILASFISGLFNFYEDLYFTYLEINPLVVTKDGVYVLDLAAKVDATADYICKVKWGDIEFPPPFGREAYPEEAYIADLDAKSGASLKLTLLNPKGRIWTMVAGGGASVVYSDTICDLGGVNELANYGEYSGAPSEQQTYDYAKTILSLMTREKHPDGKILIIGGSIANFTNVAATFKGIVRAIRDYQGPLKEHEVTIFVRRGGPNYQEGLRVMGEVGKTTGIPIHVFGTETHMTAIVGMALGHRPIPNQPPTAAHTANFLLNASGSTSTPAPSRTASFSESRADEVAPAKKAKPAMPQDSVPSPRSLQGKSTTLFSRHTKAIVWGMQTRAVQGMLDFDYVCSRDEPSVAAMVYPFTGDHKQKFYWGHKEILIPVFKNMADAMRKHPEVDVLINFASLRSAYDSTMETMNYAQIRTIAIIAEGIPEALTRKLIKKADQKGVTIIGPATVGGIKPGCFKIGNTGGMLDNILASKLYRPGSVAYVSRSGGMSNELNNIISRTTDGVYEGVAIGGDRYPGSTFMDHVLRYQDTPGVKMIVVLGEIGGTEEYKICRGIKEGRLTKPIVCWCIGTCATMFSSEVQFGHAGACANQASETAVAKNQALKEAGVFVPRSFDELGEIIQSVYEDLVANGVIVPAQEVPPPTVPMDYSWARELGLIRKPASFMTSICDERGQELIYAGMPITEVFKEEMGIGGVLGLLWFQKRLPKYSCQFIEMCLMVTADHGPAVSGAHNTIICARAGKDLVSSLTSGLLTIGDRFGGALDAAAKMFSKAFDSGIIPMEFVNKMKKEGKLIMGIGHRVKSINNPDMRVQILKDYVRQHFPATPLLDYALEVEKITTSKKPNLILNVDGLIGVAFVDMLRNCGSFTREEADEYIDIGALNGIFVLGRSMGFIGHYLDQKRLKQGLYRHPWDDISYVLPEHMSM
From the text: The ACLY-catalyzed citric acid cleavage process requires the consumption of one molecule of ATP to activate citric acid. Based on this reaction principle, the inventors utilized an ADP-Glo assay kit to detect the amount of ATP converted to ADP in response to the catalytic activity of ACLY. After the establishment of the activity measurement system and optimization of the reaction conditions, the inventors evaluated the ACLY inhibitory activity of the obtained novel ACLY small molecule inhibitors.
Activity test protocol: Human-derived ACLY protein was purchased from Beijing Yiqiao Shenzhou Technology Co., Ltd (Item No. 11769-H07B), and ADP-Glo assay kit was purchased from Promega (Item No. V9102). The total volume of the reaction was 5 μL, which consisted of a mixture of three parts: 1 μL of 2% DMSO, 2 μL of the substrate mixture, and 2 μL of the enzyme (final concentration of 25 nM). Then 1 μL of different concentrations of compounds were added for incubation. Reaction conditions: 30 min, 37° C. Then 2.5 μL of ADP Reagent from ADP-Glo Kit was used, mixed well and reacted for 2 h. 5 μL of ADP Detection was added, centrifuged and mixed well. Then the full wavelength value was read from Envision multifunctional plate reader.
Results: Firstly, the cumulative amount of fluorescence intensity of the enzyme in 30 min reaction time (RFU/min) was calculated to represent the initial velocity of the enzyme, and then the ratio of the enzyme's velocity with the addition of compounds (vsample) to the enzyme's velocity without the addition of compounds (vDMSO) was calculated to be the percentage of activity for each concentration group of the samples (Activity rate %), with the formula: % Activity=(V(sample)/(v(DMSO))×100%. The logarithmic value of the concentration was plotted against the activity percentage, and then a non-linear regression was used to calculate the fitted curve. The software GraphPad Prism 8.0 (formula log (inhibitor) vs. response—Variable slope) was used to fit the curve and calculate the IC50 value, and the results are shown in the table below.

[2] = test system: primary mouse hepatocytes; test: Inhibition of de novo lipid synthesis in primary hepatocytes, [1,2-14C]-sodium acetate tracer; type: cell-based; settings: Hepatocyte, compound 12.5 μM, 4 h, [1,2-14C]-acetate, read-out: Lipid synthesis inhibition (%) (mean ± SD)
Experimental: Primary hepatic cell isolation and walling: the mouse liver was lavaged by calcium-free perfusate, then digested using collagenase and mouse primary hepatocytes were obtained by density gradient centrifugation, and were inoculated in 6-well plates at a density of 3×10^5/ml (0.2% gelatin was coated before inoculating). After inoculating, the cells were cultured and adhered for 6 h. The medium was changed to serum-free LG-DMEM (containing 2× double antibody) and starved the cells overnight.
Isotope tracing: the next day, the medium was switched to serum-free LG-DMEM containing 10 nM insulin and the corresponding concentration of compounds (1950 μL, 4 replicate wells per group); 0.1 μCi of [1,2-^14C]-acetate serum-free medium was added to each well, and the plates were then incubated for 4 h in the incubator.
Lipid saponification: Add 1.6 mL of ice PBS to each well for washing 3 times, shake the plate to dry and add 600 μL of 0.5 M KOH to each well to lysis for 1 h. Pipette 480 μL into a glass test tube with 400 μL of 20% KOH (methanol was used as solvent), shake and mix well, and then place it in a water bath at 95° C. to saponify for 3 h. The remaining lysate was used for the determination of the concentration of proteins. Add 400 μL of petroleum ether to each tube, pipette 5-6 times and centrifuge at 2500 rpm for 5 min, take 350 μL of the upper layer of the clear solution to the EP tube, and then add 400 μL of petroleum ether to repeat the extraction for 2 times (a total of 3 times). After complete transfer of the supernatant, 200 μL of water and 400 μL of 5N sulfuric acid were added to each tube for acidification, and the mixture was shaken and mixed. Add 400 μL of petroleum ether to each tube, pipette 5-6 times and centrifuge at 2500 rpm for 5 min, take 350 μL of the upper layer of the clear solution to the EP tube, then add 400 μL of petroleum ether and repeat the extraction for 2 times (a total of 3 times). Place in a fume hood and evaporate the petroleum ether overnight.
Isotope participation quantification: 1700 μL of scintillation solution was added to each tube and read.
Data processing and analysis: Firstly, the isotopic reference (R control, unit: CCPM/mg protein) of free fatty acids and cholesterol was calculated for the Control group of untreated mouse primary hepatocytes within 4 hours, which represented the basal synthesis. The percent inhibition of lipid synthesis was then calculated for each concentration group of the sample.

[3] = test system: golden hamster; test: High-fat and high-cholesterol diet-induced hyperlipidemia model of golden hamster; type: in vivo; settings: for serum LDL cholesterol / serum total cholesterol: 1 time/day, 7 days, vs control group
From the text: Dosing regimen: The hyperlipidemia model of golden hamster is recognized as one of the ideal animal models for studying hyperlipidemia drug therapy (pharmacodynamic evaluation). In order to preliminarily investigate the existence of potential regulatory effects of the candidate compounds on hepatic lipid metabolism homeostasis, the high-fat and high-cholesterol diet-induced hyperlipidemia model of golden hamster was utilized for preliminary pharmacodynamic evaluation. The specific protocol was as follows. 56 golden hamsters, males, were modeled on high-fat and high-cholesterol diet (Research diet, item number C11953) for two weeks, and 8 golden hamsters were reserved as blank control group. Subsequently, group administration (7 groups, n=8) was performed, i.e., model control group, positive control ETC-1002 30 mg/kg group, compound A3 10 mg/kg and 30 mg/kg group, compound A4 10 mg/kg and 30 mg/kg group, and blank control group. The compounds in each group were configured with saline (0.9% NaCl) and administered at a frequency of 1 time/day for a 7-day dosing cycle.
Indicator test: The body weight and food intake of golden hamsters were closely monitored during the administration period. After 7 days of administration, blood was collected from the orbital region of each group (starved overnight for about 16 hours), centrifuged to obtain serum, and stored in cryopreservation, and then total cholesterol and LDL cholesterol were detected in the serum. The relative amount of the relevant indexes was calculated as follows: Relative amount (100%)=the amount in the administered group/the amount in the model control group*100%.

[4] = test system: ACLY knockdown primary hepatocytes; test: De novo lipid synthesis in ACLY knockdown primary hepatocytes, [14C]-citric acid tracer; type: cell-based, mouse; settings: [14C]-citric acid substrate
From the text: Test protocol: In order to further investigate the dependence of the inhibitory effect of the series of compounds on de novo lipid synthesis on ACLY, the inventors chose ACLY knockdown primary hepatocytes for further evaluation of de novo lipid synthesis, while compound ETC-1002 was used as a positive control. Specifically, the experimental protocol was as above, and 0.1 μCi/well [^14C]-citric acid was used for tracing.

[5] = Oral pharmacokinetics in ICR mice; type: in vivo, mouse; settings: male, mouse, ICR mice, oral, 30 mg/kg, plasma
Experimental: Dosing regimen: 6 normal ICR mice, male, were divided into 2 groups (n=3), one group was orally given the positive control ETC-1002, and one group was orally given the tested compound A3, both administered at a dose of 30 mg/kg; blood was taken from the eye orbits at different time points before and after the administration of the drug, and the plasma drug concentration was detected.

[6] = test system: primary hepatocytes from WT mice; test: De novo lipid synthesis in WT primary hepatocytes, [14C]-citric acid tracer; type: cell-based; settings: WT mouse hepatocytes, [14C]-citric acid substrate
[7] = golden hamster, during administration

Row | SMILES | IC50 [1] [µM] | inhibition at 12.5 µM [2] [%] | other results
1 | CC(C)(CCCC/C=C/CCCCC(C)(C)C(=O)O)C(=O)O [Compound A1] | 42.3 ± 6.5 | – | –
2 | CC(C)(CCCC/C=C\CCCCC(C)(C)C(=O)O)C(=O)O [Compound A2] | 105 ± 7.1 | 80.9 ± 5.9 | –
3 | CC(C)(CCCC/C=C\CCCCCC(C)(C)C(=O)O)C(=O)O [Compound A4] | 53.9 ± 13.8 | 78.2 ± 4.3 | serum LDL cholesterol ([3]; 10 mg/kg): did not change significantly; serum total cholesterol ([3]; 10 mg/kg): did not change significantly; serum LDL cholesterol ([3]; 30 mg/kg): significantly reduce; serum total cholesterol ([3]; 30 mg/kg): significantly reduce; body weight [3, 7]: significant decrease; food intake [3, 7]: significant decrease; tolerance observation [3, 7]: intolerance phenomena such as slowed activity
4 | CC(C)(CCCCC/C=C/CCCCCC(C)(C)C(=O)O)C(=O)O [Compound A5] | 16.7 ± 1.8 | 56.6 ± 7.6 | –
5 | CC(C)(CCCCC/C=C\CCCCCC(C)(C)C(=O)O)C(=O)O [Compound A6] | 25.5 ± 6.8 | 68.7 ± 20.9 | –
6 | CC(C)(CCCCC/C=C/CCCCCCC(C)(C)C(=O)O)C(=O)O [Compound A7] | 12 ± 2.2 | – | –
7 | CC(C)(CCCCC/C=C\CCCCCCC(C)(C)C(=O)O)C(=O)O [Compound A8] | 21.3 ± 9.7 | 21.6 ± 1.3 | –
8 | CC(C)(CCCCCC/C=C/CCCCCCC(C)(C)C(=O)O)C(=O)O [Compound A9] | 25.8 ± 9.2 | 30.9 ± 4.2 | –
9 | CC(C)(CCCCCC/C=C\CCCCCCC(C)(C)C(=O)O)C(=O)O [Compound A10] | 9.6 ± 5.1 | 21.1 ± 11.7 | –
10 | C/C(CCCCCC(C)(C)C(=O)O)=C(\C)CCCCC(C)(C)C(=O)O [Compound A11] | 40.2 ± 2.9 | – | –
11 | CC(C)(CCCCCC1CC1CCCCC(C)(C)C(=O)O)C(=O)O (stereo not shown) [Compound A12] | 56.9 ± 4.7 | 38.7 ± 11.4 | –
12 | CC(C)(CCCCCC(O)CCCCCC(C)(C)C(=O)O)C(=O)O [ETC-1002, Bempedoic acid, reference compound] | – | 46.3 ± 15.3 | inhibitory effect on de novo synthesis of cholesterol [4]: significantly attenuated or even the inhibitory effect was not manifested; inhibitory effect on de novo synthesis of triglycerides [4]: significantly attenuated or even the inhibitory effect was not manifested; AUC(0-inf) [5]: 15600 ng·h/mL; AUC(0-t) [5]: 14400 ng·h/mL; Cmax [5]: 3810 ng/mL; Tmax [5]: 0.25 h; half-life [5]: 4.45 h; MRT inf ([5]; read-out: MRT0-∞): 6.81 h; de novo synthesis of triglycerides ([6]; FIG. 1 A): significantly inhibited; de novo synthesis of cholesterol ([6]; FIG. 1 B): significantly inhibited
